From US20100240594A1, “TARGETED DELIVERY OF CHEMOTHERAPEUTIC AGENTS” (Burnham Institute for Medical Research, priority 2009, published 2010)

Tested on: pre-established subcutaneous PC3 tumors
Assay: Tumor growth in PC3 tumor-bearing mice treated i.v. twice a week
Assay type: in vivo, SCID-beige mice
Details: i.v. twice weekly from day 19 for ~3 weeks; taxol 5 mg/Kg, doxorubicin 2 mg/Kg, YSA conjugates at 1 and 5 fold molar equivalents of the parent drug dose
Method: Tumor sizes were measured and averages +/−SE are shown. The data in (A) and (B) are from the same experiment and share the same control.

SMILES	tumor growth inhibition compared with vehicle control
COc1cccc2c1C(=O)c1c(O)c3c(c(O)c1C2=O)C[C@@](O)(C(=O)CO)C[C@@H]3O[C@H]1C[C@H](N)[C@H](O)[C@H](C)O1 [doxorubicin]	not significantly different from vehicle control
CC(=O)O[C@H]1C(=O)[C@@]2(C)[C@H]([C@H](OC(=O)c3ccccc3)[C@]3(O)C[C@H](OC(=O)[C@H](O)[C@@H](NC(=O)c4ccccc4)c4ccccc4)C(C)=C1C3(C)C)[C@]1(OC(C)=O)CO[C@@H]1C[C@@H]2O [taxol]	not significantly different from vehicle control
